Reference: patent US20080312167A1, “4'' Amino Linked Macrolides Useful for the Treatment of Microbial Infections” (priority 2005, published 2008)

How the values were obtained:
Assay in all cases: MIC, standard broth dilution method in microtitre
Type in all cases: cell-based
[1] = tested on: Haemophylus influenzae
Procedure: (§1) Using a standard broth dilution method in microtitre, compounds were tested for antibacterial activity.
(§2) The MIC (μg/ml) of test compounds against various organisms was determined including: Staphylococcus aureus, Streptococcus pneumoniae, Streptococcus pyogenes, Enterococcus faecalis, Haemophylus influenzae, Moraxella catarrhalis.

[2] = tested on: Enterococcus faecalis
Procedure: as §1, §2

[3] = tested on: sensitive Staphylococcus aureus
Procedure: as §1, §2

[4] = tested on: Moraxella catarrhalis
Procedure: as §1, §2

Compound | MIC [1] [µg/mL] | MIC [2] [µg/mL] | MIC [3] [µg/mL] | MIC [4] [µg/mL]
4″(S)—N-(3-{2-[2-(3-Carboxy-7-chloro-1-cyclopropyl-4-oxo-1,4-dihydro-quinolin-6-ylamino)-ethoxy]-ethoxy}-propionyl}-azithromycin [Example 3] | ≤ 0.125 | – | – | –
CC[C@H]1OC(=O)[C@H](C)[C@@H](O[C@H]2C[C@@](C)(OC)[C@@H](NC(=O)CCOCCOCCCc3ccc4c(c3)c(=O)c(C(=O)O)cn4CC)[C@H](C)O2)[C@H](C)[C@@H](O[C@@H]2O[C@H](C)C[C@H](N(C)C)[C@H]2O)[C@](C)(O)C[C@@H](C)CN(C)[C@H](C)[C@@H](O)[C@]1(C)O (single isomer, unassigned) [Example 7] | – | ≤ 0.125 | ≤ 0.5 | ≤ 2
CC[C@H]1OC(=O)[C@H](C)[C@@H](O[C@H]2C[C@@](C)(OC)[C@H](NC(=O)CCOCCOCCCc3ccc4c(c3)c(=O)c(C(=O)O)cn4CC)[C@H](C)O2)[C@H](C)[C@@H](O[C@@H]2O[C@H](C)C[C@H](N(C)C)[C@H]2O)[C@](C)(O)C[C@@H](C)CN(C)[C@H](C)[C@@H](O)[C@]1(C)O (single isomer, unassigned) [Example 4] | – | – | – | ≤ 2
CC[C@H]1OC(=O)[C@H](C)[C@@H](O[C@H]2C[C@@](C)(OC)[C@H](NC(=O)CCOCCOCCCc3ccc4c(c3)c(=O)c(C(=O)O)cn4CCOC)[C@H](C)O2)[C@H](C)[C@@H](O[C@@H]2O[C@H](C)C[C@H](N(C)C)[C@H]2O)[C@](C)(O)C[C@@H](C)CN(C)[C@H](C)[C@@H](O)[C@]1(C)O (single isomer, unassigned) [Example 6] | – | – | ≤ 0.5 | ≤ 2
CC[C@H]1OC(=O)[C@H](C)[C@@H](O[C@H]2C[C@@](C)(OC)[C@@H](NC(=O)CCOCCOCCCc3ccc4c(c3)c(=O)c(C(=O)O)cn4C3CC3)[C@H](C)O2)[C@H](C)[C@@H](O[C@@H]2O[C@H](C)C[C@H](N(C)C)[C@H]2O)[C@](C)(O)C[C@@H](C)CN(C)[C@H](C)[C@@H](O)[C@]1(C)O (single isomer, unassigned) [Example 8] | – | ≤ 0.125 | ≤ 0.5 | ≤ 2
CC[C@H]1OC(=O)[C@H](C)[C@@H](O[C@H]2C[C@@](C)(OC)[C@H](NC(=O)CCOCCOCCCc3ccc4c(c3)c(=O)c(C(=O)O)cn4C3CC3)[C@H](C)O2)[C@H](C)[C@@H](O[C@@H]2O[C@H](C)C[C@H](N(C)C)[C@H]2O)[C@](C)(O)C[C@@H](C)CN(C)[C@H](C)[C@@H](O)[C@]1(C)O (single isomer, unassigned) [Example 9] | – | – | ≤ 0.5 | ≤ 2
